One data set deals with T1, human 15-LO (Homo sapiens, UniProt P16050).
T1 construct: made in house; host or cells: Sf9 insect cells (baculovirus, Bac-to-Bac)
T1 sequence (P16050 1-662): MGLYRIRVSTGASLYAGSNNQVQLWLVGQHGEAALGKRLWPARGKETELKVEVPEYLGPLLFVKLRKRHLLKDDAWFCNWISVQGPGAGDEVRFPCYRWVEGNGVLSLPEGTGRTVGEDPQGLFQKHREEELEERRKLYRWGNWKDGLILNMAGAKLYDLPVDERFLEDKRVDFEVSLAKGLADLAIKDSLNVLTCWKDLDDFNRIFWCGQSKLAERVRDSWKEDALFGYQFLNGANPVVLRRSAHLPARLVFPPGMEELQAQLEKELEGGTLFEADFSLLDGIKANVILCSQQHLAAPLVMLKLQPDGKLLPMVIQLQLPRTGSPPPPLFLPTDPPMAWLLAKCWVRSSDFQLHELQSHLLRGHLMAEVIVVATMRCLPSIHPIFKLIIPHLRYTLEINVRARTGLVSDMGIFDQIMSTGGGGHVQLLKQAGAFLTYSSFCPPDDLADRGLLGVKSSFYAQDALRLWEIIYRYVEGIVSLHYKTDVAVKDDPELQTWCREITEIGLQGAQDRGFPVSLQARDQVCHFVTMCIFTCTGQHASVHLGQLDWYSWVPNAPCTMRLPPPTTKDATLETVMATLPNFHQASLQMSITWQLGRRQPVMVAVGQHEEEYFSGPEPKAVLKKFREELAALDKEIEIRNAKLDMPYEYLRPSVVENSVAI
Kind of data set: Human Lysate 15-LO Assay (HUM15LO). To be noted: 15-LO catalyzed oxidation of linoleic acid, 15 minutes at 4° C. The data set is classed as biochemical. As for the experimental part: The HUM15LO assay measures inhibition of 15-LO catalyzed oxidation of linoleic acid to the hydroperoxy fatty acid 13-(S)HPODE, a conjugated diene. In the HUM15LO assay, a test compound was incubated with 15-LO enzyme in the presence of the linoleic acid substrate. For example, a known amount of a compound of the present invention and 100 μL of human 15-LO and 174 μM of linoleic acid in PBS containing 0.2% sodium cholate were incubated for 15 minutes at 4° C. The test reaction was stopped with 100 μL of mobile phase and 10 μL of triethyl phosphite. […] 13-HPODE was quantitated by comparing peak areas of individual samples with those from a standard curve generated using authentic 13-HODE. The test reaction was compared to a control reaction, which is identical to the test reaction except a test compound is not present. Percent inhibition was calculated as […], expressed as a percent.
Human 15-LO was generated in a recombinant 15-lipoxygenase bacculovirus expression system, using Gibco/BRL/Life Technologies' Bac-to-Bac expression reagents; T4 DNA ligase, Kanamycin, Gentamicin, tetracycline, penicillin, streptomycin, Bluo-gal, IPTC; DH10Bac competent cells, SOC, LB medium, Sf-900 II SFM media, Sf9 insect cells, Cell Fectin, and EcoRI, BamHI, and KpnI restriction enzymes.

On to `COc1ccc(-c2nc3cccnc3[nH]2)cc1N` [Chemical Example 1, 5-(3H-imidazo[4,5-b]pyridin-2-yl)-2-methoxy-phenylamine], for which, on human 15-LO (at 10 μM), the inhibition (usually the change of the read-out against control, counted positive when it falls) came to 39%.

Turning to `COc1ccc(-c2nc3cccnc3[nH]2)cc1NS(=O)(=O)c1cccs1` [Chemical Example 2, Thiophene-2-sulfonic acid [5-(3H-imidazo[4,5-b]pyridin-2-yl)-2-methoxy-phenyl]-amide], the melting point (usually the temperature of the solid-liquid transition) was in the range of 252 to 254 °C. Besides, half-maximal inhibition on human 15-LO (IC50) was put at 10 µM.

The record behind these values is patent US6943174B2, “6,5-Fused bicyclic heterocycles” (Warner-Lambert Company, priority 2000, dated 2005).
